According to PMC10187093, “Synthesis, in silico modelling, and in vitro biological evaluation of substituted pyrazole derivatives as potential anti-skin cancer, anti-tyrosinase, and antioxidant agents” (Journal of Enzyme Inhibition and Medicinal Chemistry, 2023):
Like-named read-outs stand apart in the source and are kept apart here.

Key:
[1] = molecular target: T1, mushroom tyrosinase (Agaricus bisporus, UniProt C7FF04); assay: In vitro mushroom tyrosinase inhibition assay; type: biochemical; settings: for inhibition at 500 µM: read-out: % Inhibition of tyrosinase; for IC50: > 500 = not biologically relevant
T1 construct: purchased Sigma-Aldrich Chemical Company (St. Louis, MO) and MP Biomedicals (Irvine, CA)
Description: The anti-tyrosinase potential of all the synthesised derivatives was determined by an enzymatic tyrosinase inhibition assay based on their ability to inhibit the substrate, L-tyrosine, from binding to the tyrosinase enzyme. […] Test samples were dissolved in DMSO at a concentration of 10 mM and then diluted to different concentrations with phosphate buffer (0.1 M, pH 6.8). Each well contained 40 µL of the sample with 80 µL of phosphate buffer solution (0.1 M, pH 6.8), 40 µL of tyrosinase enzyme (100 units/mL), and 40 µL L-tyrosine (2.5 mM). The mixture was incubated for 30 min at room temperature, and absorbance was measured at 490 nm. Each sample was accompanied by a sample blank containing all components except tyrosinase. […] The percentage of tyrosinase inhibition was calculated as follows: ((ΔAcontrol – ΔAsample)/ΔAcontrol) × 100. IC50 values denoted the sample concentration required to inhibit 50% tyrosinase activity (Table S1).

[2] = system: A375; assay: MTT antiproliferative/cytotoxicity assay, A375; type: cell-based, human; settings: Homo sapiens, A-375, 48 h, read-out: IC50 A375
Description: (§1) Human-derived GFP-expressing melanoma A375 and epidermoid carcinoma A431 cell lines were purchased from Angio-Proteomie (Boston, MA). Human melanoma carcinoma SK-MEL-28 and human immortalised keratinocytes (HaCaT) cell lines were acquired from American Type Culture Collection (ATCC; Manassas, VA). Human cutaneous SCC cell line SCC-12[192] was generously provided by Dr. James G. Rheinwald to Dr. Tatiana Efimova. Except SK-MEL-28, which was cultured in an RPMI-1640 medium supplemented with 5% FBS, all other human immortalised cell lines were grown and maintained in DMEM containing varying percentages of FBS; 5% FBS for A431, SCC-12, and HaCaT lines, and 10% FBS for A375. All culture media were routinely supplemented with 1% PEST 100X (100 U/mL penicillin, 100 μg/mL streptomycin), and cells were cultured in incubators maintained at 37 °C under an atmosphere of 95% humidity, 20% O2, and 5% CO2. The growth media of incubated cells were changed every 2–3 days until they attained 70–80% confluence, after which they were sub-cultured for experiments and re-passaging. DMSO was used as the vehicle to prepare a 10 mM stock solution of the test compounds.
(§2) Stock solutions (10 mM) were prepared by dissolving each compound to be screened in DMSO. From these stock solutions, escalating concentrations were prepared using the corresponding cell growth media as a diluent, and the cells (65–75% confluent) were treated with (0–40 µM) or without the drug in sext- to octuplicate and incubated for 48 h. All treatment protocols and controls were prepared as previously described.
(§3) The potency and cytotoxicity of the test compounds against two cutaneous melanoma (A375 and SK-MEL-28) and two non-melanoma (A431 and SCC-12) SC cell lines in addition to a control immortalised normal human epidermal keratinocytes (HaCaT) cell line were assessed by MTT assay as previously described.

[3] = system: SK-MEL-28; assay: MTT antiproliferative/cytotoxicity assay, SK-MEL-28; type: cell-based, human; settings: Homo sapiens, SK-MEL-28, 48 h, read-out: IC50 SKMEL-28
Description: as §1, §2, §3

[4] = system: GFP-A431; assay: MTT antiproliferative/cytotoxicity assay, A431; type: cell-based, human; settings: for IC50: Homo sapiens, A-431, 48 h, read-out: IC50 GFP-A431; for selectivity index (SI) A431: IC50 HaCaT divided by IC50 A431
Description: (§4) Human-derived GFP-expressing melanoma A375 and epidermoid carcinoma A431 cell lines were purchased from Angio-Proteomie (Boston, MA). Human melanoma carcinoma SK-MEL-28 and human immortalised keratinocytes (HaCaT) cell lines were acquired from American Type Culture Collection (ATCC; Manassas, VA). […] The growth media of incubated cells were changed every 2–3 days until they attained 70–80% confluence, after which they were sub-cultured for experiments and re-passaging. DMSO was used as the vehicle to prepare a 10 mM stock solution of the test compounds.
(§5) Stock solutions (10 mM) were prepared by dissolving each compound to be screened in DMSO.

[5] = system: SCC-12; assay: MTT antiproliferative/cytotoxicity assay, SCC-12; type: cell-based, human; settings: for IC50: Homo sapiens, SCC12, 48 h, read-out: IC50 SCC-12; for selectivity index (SI) SCC-12: IC50 HaCaT divided by IC50 SCC-12
Description: as §4, §5

[6] = system: HaCaT; assay: MTT cytotoxicity assay, noncancerous HaCaT keratinocytes; type: cell-based, human; settings: Homo sapiens, HaCaT, 48 h, read-out: IC50 HaCaT
Description: as §1, §2, §3

[7] = DPPH free radical scavenging assay; settings: for Percent Scavenging (DPPH): 1 mM
Description: An initial screen was done of all 25 derivatives at a concentration of 1 mM. […] Methanol was used as the diluent, and 100 µL of DPPH (200 µM; Sigma-Aldrich, St. Louis, MO) was added to each well. […] The scavenging capacity (SC) was calculated as SC% = ((ΔAcontrol – ΔAsample)/ΔAcontrol) × 100%, where ΔAcontrol was the absorbance of the reagent blank, and ΔAsample was the absorbance of the test samples. The control contained all reagents except the compounds, and all tests were performed in triplicate. Quercetin served as a positive control. The DPPH methanolic solution (1 mL) mixed with DMSO (5 µL) served as a negative control.

[8] = 500 µM, single-concentration screen
[9] = read-out: IC50 Value, mushroom tyrosinase inhibition (Table S1)
[10] = control noncancerous keratinocytes, MTT
[11] = N.A. = No Activity, > 1000 = not biologically relevant, read-out: IC50 Value, DPPH antioxidant activity (Table S4)

T1 sequence (C7FF04 1-392 limits assumed): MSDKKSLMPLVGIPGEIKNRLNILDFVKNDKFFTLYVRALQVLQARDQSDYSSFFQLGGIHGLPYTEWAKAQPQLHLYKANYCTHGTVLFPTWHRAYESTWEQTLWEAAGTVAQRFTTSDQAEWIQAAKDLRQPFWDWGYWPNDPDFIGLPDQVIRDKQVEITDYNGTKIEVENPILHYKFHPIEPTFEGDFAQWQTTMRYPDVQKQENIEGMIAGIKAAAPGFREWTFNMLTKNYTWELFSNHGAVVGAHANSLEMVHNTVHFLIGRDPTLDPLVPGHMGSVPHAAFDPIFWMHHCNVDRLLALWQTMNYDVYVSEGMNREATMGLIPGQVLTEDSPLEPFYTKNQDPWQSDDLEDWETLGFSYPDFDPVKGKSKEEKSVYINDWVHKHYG

Row | SMILES | inhibition at 500 µM [1, 8] | IC50 [1, 9] | IC50 ([2]; melanoma, MTT, 48 h) | IC50 ([3]; melanoma, MTT, 48 h) | IC50 ([4]; non-melanoma, MTT, 48 h) | IC50 ([5]; non-melanoma, MTT, 48 h) | IC50 [6, 10] | Percent Scavenging (DPPH) [7] | also measured
1 | CCc1c(C)nn(-c2ccccc2)c1C [P7, 4-Ethyl-3,5-dimethyl-1-phenyl-1H-pyrazole] | 55.5% | > 500 µM | 53.3 ± 4.2 µM | 46 ± 1 µM | 47.8 ± 2 µM | 43 ± 2.1 µM | 59.2 ± 3.5 µM | 15.47% | IC50 [7, 11]: > 1000 µM
2 | Cc1nn(-c2ccccc2)c2c1CCC2 [P8, 3-Methyl-1-phenyl-1,4,5,6-tetrahydrocyclopenta[c]pyrazole] | 67.2 ± 0.2% | 190 µM | 55.3 ± 3.8 µM | 181 ± 4.7 µM | 72.2 ± 5.2 µM | 120 ± 8.5 µM | 44.5 ± 1.4 µM | -2.57% | –
3 | Cc1c2c(nn1-c1ccccc1)-c1ccccc1CC2 [P9, 3-Methyl-2-phenyl-4,5-dihydro-2H-benzo[g]indazole] | 9.49% | > 500 µM | 45.2 ± 2 µM | 40.8 ± 1 µM | 28 ± 3.6 µM | 28.8 ± 1.4 µM | 43.6 ± 1.4 µM | 5.48% | selectivity index (SI) A431 [4]: 1.6; selectivity index (SI) SCC-12 [5]: 1.5; IC50 [7, 11]: > 1000 µM
4 | CCOC(=O)c1c(C)nn(-c2ccccc2)c1C [P10, Ethyl 3,5-dimethyl-1-phenyl-1H-pyrazole-4-carboxylate] | – | – | – | – | – | – | – | -11.90% | IC50 ([1]; IC50 Value, mushroom tyrosinase inhibition (Table S1)): > 500 µM; inhibition at 500 µM [1]: 31%; IC50 [2]: 55.3 ± 2.5 µM; IC50 [3]: 43.7 ± 2.7 µM; IC50 [4]: 196 ± 3.8 µM; IC50 [5]: 49.1 ± 2 µM; IC50 [6]: 68 ± 1.2 µM
5 | Cc1cc(-c2ccccc2)no1 [P11, 5-Methyl-3-phenylisoxazole] | 88 ± 0.3% | 173 µM | 57.8 ± 6.5 µM | 34.5 ± 1.2 µM | 43.7 ± 2.7 µM | 44.6 ± 1.3 µM | 116 ± 10.1 µM | -27.39% | selectivity index (SI) A431 [4]: 2.6; selectivity index (SI) SCC-12 [5]: 2.6
6 | O=C1O[C@H]([C@@H](O)CO)C(O)=C1O [ascorbic acid, reference compound] | – | – | – | – | – | – | – | – | IC50 ([7]; read-out: IC50 DPPH radical scavenging): 25.2 ± 1.4 µM
7 | O=c1c(O)c(-c2ccc(O)c(O)c2)oc2cc(O)cc(O)c12 [quercetin, reference compound] | – | – | – | – | – | – | – | 60% | Percent Scavenging (DPPH) ([7]; listed as Quercetin): 60.83%

More lines, main results first:

Row | inhibition at 500 µM [1, 8] | IC50 [1, 9] | SMILES | IC50 ([2]; melanoma, MTT, 48 h) | IC50 ([3]; melanoma, MTT, 48 h) | IC50 ([4]; non-melanoma, MTT, 48 h) | IC50 ([5]; non-melanoma, MTT, 48 h) | IC50 [6, 10] | Percent Scavenging (DPPH) [7] | also measured
8 | 21.2% | > 500 µM | Cc1cc(-c2ccccc2)n(-c2ccc(S(N)(=O)=O)cc2)n1 [P19, 4-(3-Methyl-5-phenyl-1H-pyrazol-1-yl)benzenesulfonamide] | 47.1 ± 4.2 µM | 40.5 ± 3 µM | – | – | 57 ± 1.3 µM | -18.51% | –
9 | 59 ± 0.4% | – | OC[C@H]1O[C@@H](Oc2ccc(O)cc2)[C@H](O)[C@@H](O)[C@@H]1O [arbutin, 4-hydroxyphenyl β-D-glucopyranoside, reference compound] | – | – | – | – | – | – | –
